This note sets out measurements from publication PMC4110978 (Expert opinion on drug metabolism & toxicology, 2009).

In one data set the test system is human hepatocytes. Kind of data set: Metabolic clearance in 3D perfused bioreactor. The settings on record: day 4, four experiments; probe incubated 24 h; disappearance by LC/MS/MS.
In a further data set the test system is rat hepatocytes. The experiment in a line: Metabolic clearance in 3D perfused bioreactor. The settings on record: day 6, two experiments; probe incubated 24 h; disappearance by LC/MS/MS.

As to `C=CCN1CC[C@]23c4c5ccc(O)c4O[C@H]2C(=O)CC[C@@]3(O)[C@H]1C5` [Naloxone], in the data set with human hepatocytes, the “Clearance values, Human LiverChip” value is 29 µL per min, per million cells. For the same compound, the “Clearance values, Rat LiverChip” value in the data set on rat hepatocytes is recorded as 39 µL per min, per million cells.

`Cc1ncc2n1-c1ccc(Cl)cc1C(c1ccccc1F)=NC2` [Midazolam]: the “Clearance values, Human LiverChip” value in the data set on human hepatocytes was 13 µL per min, per million cells. Also, in the data set on rat hepatocytes, the “Clearance values, Rat LiverChip” value is 38 µL per min, per million cells.
